Experimental data as given in patent publication US11752120B2, “Use of succinic acid in increasing sensitivity of bacteria to antibiotics” (SUN YAT-SEN UNIVERSITY, priority 2018, dated 2023).
Like-named read-outs stand apart in the source and are kept apart here.

Assays:
[1] = system: clinical Escherichia coli YT16 and YT28; settings: 6 hours (FIG. 10)
Method: A concentration of the treated bacteria was adjusted to 106 CFU/mL, 1 mL of the treated bacteria was taken and transferred into a 1.5 mL EP tube, 10 μL of 3 mM DiOC2 (3,3′-diethyloxa-carbocyanine iodide) was added, and oscillation and incubation were performed for 30 minutes after mixing sufficiently. The bacteria were transferred to a flow cytometry analysis tube before use on the machine, a FACSCalibur flow cytometer (Becton Dickinson, San Jose, Calif., USA) was used for detection, and parameter settings were performed according to the instrument operating procedures. The dye DiOC2 (3) has a green fluorescence excitation wavelength of 488 nm, an emission wavelength of 530 nm, a red fluorescence excitation wavelength of 488 nm, and an emission wavelength of 610 nm. The ratio of the red light intensity to the green light intensity indicates the intensity of the membrane potential, and calculation formula of the proton motive force (PMF) value is LOG (10^3/2*Y mean/X mean). Y mean and X mean represent red light intensity and green light intensity, respectively. Determination was performed according the instructions of the BacLight bacterial membrane potential kit (Invitrogen) kit.

[2] = system: clinical Escherichia coli YT16 and YT28; assay: Viable bacteria count / survival rate after antibiotic with or without succinic acid in M9 medium; assay type: cell-based
Method: A single colony of clinical bacteria was picked from a solid LB plate and was inoculated in 5 mL LB liquid medium for culture at 37° C. and 200 rpm for 16 hours, and then was inoculated in 100 mL LB liquid medium at a ratio of 1:100 (v/v) and was cultured at 37° C. until OD600 value was 1.0. 20 mL of bacterial solution was collected and centrifuged at 8000 rpm for 5 minutes, the supernatant was cleared and bacterial cells were washed with an equal volume of 0.85% normal saline, and finally the bacterial cells were suspended with 1×M9 basic medium (containing 10 mM acetate), the OD value of the bacterial solution was adjusted to 0.5, and then 5 mL of the bacterial solution was aliquoted in a test tube for the following experimental studies.
The survival rates of the clinical bacteria in medium with adding succinic acid and without adding succinic acid at the same antibiotic concentration were compared.
The formula is the number of viable bacteria when different concentrations of succinic acid were added/the number of viable bacteria without adding succinic acid×100%.
In order to study whether clinical Escherichia coli has effect on penicillin antibiotics after adding succinic acid, two clinical Escherichia coli samples of YT16 and YT28 were prepared according to step 2 in Embodiment 1, 20 mM succinic acid and 3 kinds of penicillin were added respectively, […], the number of viable bacteria was counted, and the survival rate was calculated. […]

[3] = system: clinical Escherichia coli biofilm; assay: In vitro bactericidal assay of biofilm; assay type: cell-based; settings: catheter biofilm, 6 hours; succinic acid 580 mg/kg; ampicillin 2000 mg/kg for YT16, 500 mg/kg for YT28
Method: (§1) […] of clinical Escherichia coli (YT3, YT11, YT12, YT16, YT17, YT21, YT22, YT23, YT28, YT33) were picked, monocloned into LB medium, and cultured overnight, then were transferred into 2 mL fresh LB medium at 1:200, and added with a 6 mm PE-50 biological catheter that was sterilized by UV, and cultured in a 37° C. incubator for culture for 24 hours. The bacterial solution was replaced with 1 mL of LB medium daily, and the catheter was continuously cultured for 3 days. The prepared biofilm was washed 5 times with 1 mL of sterile normal saline, and then placed in a 1.5 mL EP tube.
The assay was divided into 4 groups: normal saline control group, succinic acid group, ampicillin group, ampicillin+succinic acid group, and the catheters were treated in a shaker at 37° C. and 200 rpm. A dosage of succinic acid was 580 mg/kg, and a dosage of ampicillin was 2000 mg/kg for YT16, and 500 mg/kg for YT28. After 6 hours, ultrasonic cleaning was conducted for 15 minutes, the biofilm on the catheter was eluted and thoroughly mixed, and after gradient dilution, spot plate counting was performed. The formula for calculating the bacterial survival rate is: number of viable bacteria in each group/number of viable bacteria in the control group×100%.

[4] = system: clinical Escherichia coli YT16 and YT28; settings: 6 hours (FIG. 9)
Method: The cultured bacteria were washed and resuspended in normal saline, OD600 value was adjusted to 1.0, and 1 mL of bacterial cells were taken for ultrasonication, and after centrifugation, the supernatant was taken to determine the antibiotic content. The ampicillin ELISA rapid diagnostic kit (purchased from Shenzhen Lvshiyuan Biotechnology Co., Ltd., with a detection range of 2 to 1000 g/mL) was used for detection and the specific steps are as follows: 50 μL of sample (or standard) and 50 μL of antibody were added into a 96-well plate, mixed gently, and incubated at 25° C. for 30 minutes, and the plate was washed 4 to 5 times; 100 μL of enzyme standard was added, mixed gently, and incubated away from light at 25° C. for 30 minutes, and the plate was washed 4 to 5 times; 50 μL of substrates A and B was added respectively, mixed gently, and incubated away from light at 25° C. for 15 minutes; and finally, a stop solution was added to stop the reaction, and an enzyme-labeled instrument was set to measure the absorbance of the reaction product at 450 nm. A standard curve was drawn, with the percent absorbance of the standard as an ordinate and semi-log of the concentration of the ampicillin standard (ng/mL) as the abscissa. AMP actual concentration=sample detection concentration xdilution multiple.

[5] = system: clinical Escherichia coli biofilm; settings: mice
Method: as §1
Further, mice were used as test animals, and the prepared clinical Escherichia coli biofilm was implanted into the mouse urethra to construct a mouse chronic urinary tract infection model for conducting an in vivo clinical Escherichia coli clearance test was performed: a 6-mm PE-50 biological catheter of a clinical Escherichia coli biofilm formed by culture for 3 days was implanted into the urethra of a 5-week-old Kunming female mouse (about 20 g). After 48 hours, mice were divided into 2 groups of 5 mice each, which were the ampicillin group and the ampicillin+succinic acid group. […] 24 hours after the last injection, the catheter tube was taken into normal saline to suspend the biofilm bacteria in the ultrasound, and gradient dilution and plate counting were performed to calculate the bacterial survival rate on the catheter biofilm. The calculation formula is the number of viable bacteria in the injection substance group/number of viable bacteria in the control group×100%.

[6] = YT16, 10 mg/mL ampicillin + 1.25 mM succinic acid, 4 hours (FIG. 3)
[7] = YT16, 10 mg/mL ampicillin + 20 mM succinic acid, 4 hours (FIG. 3)
[8] = YT28, 10 mg/mL ampicillin + 1.25 mM succinic acid, 4 hours (FIG. 3)
[9] = YT28, 10 mg/mL ampicillin + 20 mM succinic acid, 4 hours (FIG. 3)

O=C(O)CCC(=O)O [succinic acid]
increase of proton motive force of the bacteria ([1]; YT16, succinic acid added vs control without): 1.2 times | increase of proton motive force of the bacteria ([1]; YT28, succinic acid added vs control without): 1.45 times | survival rate ([2]; YT16, 2.5 mg/mL ampicillin after adding 20 mM succinic acid, 4 hours): 30.06% | survival rate ([2]; YT16, 5 mg/mL ampicillin after adding 20 mM succinic acid, 4 hours): 2.06% | bacterial survival rate [2, 6]: 69.23% | bactericidal efficiency [2, 6]: 1.07 times | bacterial survival rate [2, 7]: 1.19% | bactericidal efficiency [2, 7]: 61 times | survival rate ([2]; YT16, 10 mg/mL ampicillin after adding 20 mM succinic acid, 4 hours (FIG. 1)): 0.41% | survival rate ([2]; YT16, 10 mg/mL ampicillin and 20 mM succinic acid, 1 hour (FIG. 2)): 71.54% | survival rate ([2]; YT16, 10 mg/mL ampicillin and 20 mM succinic acid, 4 hours (FIG. 2)): 0.78% | survival rate ([2]; YT16, 10 mg/mL ampicillin and 20 mM succinic acid, 7 hours (FIG. 2)): 0.01% | increase of sensitivity to penicillin G sodium salt ([2]; YT16, 20 mM succinic acid + 0.5 mg/mL penicillin G sodium salt, 4 hours): 4.96 times | increase of sensitivity to penicillin G sodium salt ([2]; YT16, 20 mM succinic acid + 0.75 mg/mL penicillin G sodium salt, 4 hours): 5.13 times | increase of sensitivity to carbenicillin ([2]; YT16, 20 mM succinic acid + 1.25 mg/mL carbenicillin, 4 hours): 1.99 times | increase of sensitivity to carbenicillin ([2]; YT16, 20 mM succinic acid + 2.5 mg/mL carbenicillin, 4 hours): 11.65 times | increase of sensitivity to amoxicillin ([2]; YT16, 20 mM succinic acid + 5 mg/mL amoxicillin, 4 hours): 15.86 times | increase of sensitivity to amoxicillin ([2]; YT16, 20 mM succinic acid + 7.5 mg/mL amoxicillin, 4 hours): 3.37 times | bactericidal efficiency ([2]; YT16, 20 mM succinic acid + 10 mg/mL ampicillin vs ampicillin only, at 1 hour (FIG. 2)): 1.33 time | bactericidal efficiency ([2]; YT16, 20 mM succinic acid + 10 mg/mL ampicillin vs ampicillin only, at 4 hours (FIG. 2)): 60.66 times | bactericidal efficiency ([2]; YT16, 20 mM succinic acid + 10 mg/mL ampicillin vs ampicillin only, at 7 hours (FIG. 2)): 1744.19 times | bactericidal efficiency increase ([2]; YT16, 20 mM succinic acid added to 2.5 mg/mL ampicillin, 4 hours, vs ampicillin alone): more than 2 times | bactericidal efficiency increase ([2]; YT16, 20 mM succinic acid added to 5 mg/mL ampicillin, 4 hours, vs ampicillin alone): 16.75 times | bactericidal efficiency increase ([2]; YT16, 20 mM succinic acid added to 10 mg/mL ampicillin, 4 hours, vs ampicillin alone (FIG. 1)): 62.25 times | bactericidal efficiency increase ([2]; YT16, 20 mM succinic acid added to 20 mg/mL ampicillin, 4 hours, vs ampicillin alone): 105.96 times | enhancement of sensitivity to different kinds of antibiotics ([2]; YT16, 20 mM succinic acid with gentamicin, ciprofloxacin, tetracycline, erythromycin, clindamycin or rifampin, 4 hours (FIG. 6)): about 2 times | survival rate ([2]; YT16, 20 mg/mL ampicillin after adding 20 mM succinic acid, 4 hours): 0.12% | survival rate ([2]; YT28, 2.5 mg/mL ampicillin after adding 20 mM succinic acid, 4 hours): 41.62% | survival rate ([2]; YT28, 5 mg/mL ampicillin after adding 20 mM succinic acid, 4 hours): 12.71% | bacterial survival rate [2, 8]: 80.31% | bactericidal efficiency [2, 8]: 1.07 times | bacterial survival rate [2, 9]: 4.24% | bactericidal efficiency [2, 9]: 20 times | survival rate ([2]; YT28, 10 mg/mL ampicillin after adding 20 mM succinic acid, 4 hours (FIG. 1)): 1.7% | survival rate ([2]; YT28, 10 mg/mL ampicillin and 20 mM succinic acid, 1 hour (FIG. 2)): 66.81% | survival rate ([2]; YT28, 10 mg/mL ampicillin and 20 mM succinic acid, 4 hours (FIG. 2)): 1.25% | survival rate ([2]; YT28, 10 mg/mL ampicillin and 20 mM succinic acid, 7 hours (FIG. 2)): 0.18% | increase of sensitivity to penicillin G sodium salt ([2]; YT28, 20 mM succinic acid + 0.5 mg/mL penicillin G sodium salt, 4 hours): 2.66 times | increase of sensitivity to penicillin G sodium salt ([2]; YT28, 20 mM succinic acid + 0.75 mg/mL penicillin G sodium salt, 4 hours): 9.34 times | increase of sensitivity to carbenicillin ([2]; YT28, 20 mM succinic acid + 1.25 mg/mL carbenicillin, 4 hours): 1.8 times | increase of sensitivity to carbenicillin ([2]; YT28, 20 mM succinic acid + 2.5 mg/mL carbenicillin, 4 hours): 15.85 times | increase of sensitivity to amoxicillin ([2]; YT28, 20 mM succinic acid + 5 mg/mL amoxicillin, 4 hours): 13.94 times | increase of sensitivity to amoxicillin ([2]; YT28, 20 mM succinic acid + 7.5 mg/mL amoxicillin, 4 hours): 31.85 times | bactericidal efficiency ([2]; YT28, 20 mM succinic acid + 10 mg/mL ampicillin vs ampicillin only, at 1 hour (FIG. 2)): 1.44 time | bactericidal efficiency ([2]; YT28, 20 mM succinic acid + 10 mg/mL ampicillin vs ampicillin only, at 4 hours (FIG. 2)): 21.45 times | bactericidal efficiency ([2]; YT28, 20 mM succinic acid + 10 mg/mL ampicillin vs ampicillin only, at 7 hours (FIG. 2)): 78.34 times | bactericidal efficiency increase ([2]; YT28, 20 mM succinic acid added to 2.5 mg/mL ampicillin, 4 hours, vs ampicillin alone): more than 1.65 times | bactericidal efficiency increase ([2]; YT28, 20 mM succinic acid added to 5 mg/mL ampicillin, 4 hours, vs ampicillin alone): 4.42 times | bactericidal efficiency increase ([2]; YT28, 20 mM succinic acid added to 10 mg/mL ampicillin, 4 hours, vs ampicillin alone (FIG. 1)): 21.06 times | bactericidal efficiency increase ([2]; YT28, 20 mM succinic acid added to 20 mg/mL ampicillin, 4 hours, vs ampicillin alone): 34.48 times | survival rate ([2]; YT28, 20 mg/mL ampicillin after adding 20 mM succinic acid, 4 hours): 0.79% | clearance of clinical Escherichia coli on the biofilms, used alone [3]: cannot clear | increase of the number of antibiotics (ampicillin) in the bacteria ([4]; YT16, ampicillin and succinic acid vs only ampicillin): 5.97 times | increase of the number of antibiotics (ampicillin) in the bacteria ([4]; YT28, ampicillin and succinic acid vs only ampicillin): 7.99 times | bactericidal efficiency increase on catheter biofilm ([5]; i.p. 590 mg/kg succinic acid + ampicillin (2000 or 500 mg/kg) twice a day for 3 days vs ampicillin group, 1st of the 9 strains (YT3 by order of b93)): 14 times | bactericidal efficiency increase on catheter biofilm ([5]; i.p. 590 mg/kg succinic acid + ampicillin twice a day for 3 days vs ampicillin group, 2nd of the 9 strains (YT11 by order of b93)): 5 times | bactericidal efficiency increase on catheter biofilm ([5]; i.p. 590 mg/kg succinic acid + ampicillin twice a day for 3 days vs ampicillin group, 3rd of the 9 strains (YT12 by order of b93)): 53 times | bactericidal efficiency increase on catheter biofilm ([5]; i.p. 590 mg/kg succinic acid + ampicillin twice a day for 3 days vs ampicillin group, 4th of the 9 strains (YT16 by order of b93)): 30 times | bactericidal efficiency increase on catheter biofilm ([5]; i.p. 590 mg/kg succinic acid + ampicillin twice a day for 3 days vs ampicillin group, 5th of the 9 strains (YT17 by order of b93)): 5 times | bactericidal efficiency increase on catheter biofilm ([5]; i.p. 590 mg/kg succinic acid + ampicillin twice a day for 3 days vs ampicillin group, 6th of the 9 strains (YT21 by order of b93)): 9 times | bactericidal efficiency increase on catheter biofilm ([5]; i.p. 590 mg/kg succinic acid + ampicillin twice a day for 3 days vs ampicillin group, 7th of the 9 strains (YT22 by order of b93)): 38 times | bactericidal efficiency increase on catheter biofilm ([5]; i.p. 590 mg/kg succinic acid + ampicillin twice a day for 3 days vs ampicillin group, 8th of the 9 strains (YT23 by order of b93)): 17 times | bactericidal efficiency increase on catheter biofilm ([5]; i.p. 590 mg/kg succinic acid + ampicillin twice a day for 3 days vs ampicillin group, 9th of the 9 strains (YT28 by order of b93)): 53 times
